Among the data in PMC11271312 (Nature Communications, 2024) are fragment found values, retold here.

The nature of data set [1]: 80% pooled plasma from dogs and 20% PBS (pH 7.4). The note with it: dog, 37 °C, up to […].
Data set [2] can be described thus: 80% pooled plasma from rats and 20% PBS (pH 7.4). To be noted: rat, 37 °C, up to […].
Data set [3] in a line: 80% pooled plasma from humans and 20% PBS (pH 7.4). To be noted: human, 37 °C, up to […].
The nature of data set [4]: 80% pooled plasma from minipigs and 20% PBS (pH 7.4). The note with it: minipig, 37 °C, up to […].
Data set [5] is described as follows: plasma from minipigs dosed intravenously with insulin icodec (2 nmol/kg). To be noted: Göttingen Minipigs, up to 10 days after dosing.

On to “A14E B16H B25H B29Nε-C20 diacid-LγGlu–2xAdo desB30 human insulin”, for which the fragment found entry in data set [1] was “insulin B-chain with internal disulphide Cys 7–Cys 19, 96 h”; in data set [2] it was “insulin B-chain with internal disulphide Cys 7–Cys 19, 24 h”; in data set [3], “insulin B-chain with internal disulphide Cys 7–Cys 19, 24 h”; in data set [4], “insulin B-chain with internal disulphide Cys 7–Cys 19, 48 h”; in data set [5] it was “free insulin icodec B-chain (disulphide Cys 7–Cys 19)”.

Consider A14E, B25H, desB30 | C18 diacid, for which the fragment found entry in data set [2] is recorded as “B-chain (internal disulphide bond connecting Cys 7 with Cys 19), 48 h”.

Regarding A14E, B25H, desB30 | C20 diacid, the fragment found entry is “B-chain (internal disulphide bond connecting Cys 7 with Cys 19), 24 h” in data set [2]; “B-chain (internal disulphide bond connecting Cys 7 with Cys 19), 96 h” in data set [3]; “B-chain (internal disulphide bond connecting Cys 7 with Cys 19), 168 h” in data set [4].

For A14E, desB30 | C18 diacid, the fragment found entry in data set [2] was “B-chain (internal disulphide bond connecting Cys 7 with Cys 19), 24 h”.

For the substance B16H, desB30 | C18 diacid, the fragment found entry is “B-chain (internal disulphide bond connecting Cys 7 with Cys 19), 24 h” in data set [1]; “B-chain (internal disulphide bond connecting Cys 7 with Cys 19), 24 h” in data set [2]; “B-chain (internal disulphide bond connecting Cys 7 with Cys 19), 24 h” in data set [3]; “B-chain (internal disulphide bond connecting Cys 7 with Cys 19), 5 h” in data set [4].

Consider B25H, desB30 | C18 diacid, for which the fragment found entry in data set [2] is on record as “B-chain (internal disulphide bond connecting Cys 7 with Cys 19), 5 h”.

Regarding desB30 | C18 diacid, the fragment found entry in data set [2] is on record as “B-chain (internal disulphide bond connecting Cys 7 with Cys 19), 2.5 h”.
